Test results from patent US8580795B2, “Heterocyclic compounds as phosphodiesterase inhibitors” (Orchid Chemicals & Pharmaceuticals Limited, priority 2009, dated 2013).

molecular target: human PDE4B enzyme (PDE4B2) (Homo sapiens, UniProt Q07343); test: Phosphodiesterase 4 screening assay (SPA, [3H]-cAMP); type: biochemical; settings: 100 nM compound; 0.5 μM cAMP
Method: Phosphodiesterase 4 Screening Assay:
PDE4 (Phosphodiesterase type IV) enzymes convert cyclic AMP (cAMP) into AMP. The assay is performed to determine the effect of test compounds on the inhibition of purified human PDE4B enzyme.
The assay involves the detection of the Tritiated AMP (product) using SPA beads known as yittrium silicate. The linear AMP bind preferentially to SPA yittrium silicate beads compared to cyclic nucleotides in the presence of zinc sulphate. The binding of the radiolabelled product to the bead brings the isotope into close proximity to allow radiation from the tritium to excite the scintillant within the bead to emit light. The unbound radiolabel is not close enough to allow this energy transfer and the light emitted due to the binding of tritiated AMP is detected as cpm (counts per minute).
PDE Activity (SPA Based Assay Protocol):
PDE4B activity was inhibited by the compounds according to the invention in a modified SPA (scintillation proximity assay) test, supplied by GE Healthcare Life Sciences (see procedural instructions “Phosphodiesterase [^3H]-cAMP SPA enzyme assay, code TRKQ 7090”), carried out in 96-well microtitre plates. The test volume is 100 μL and contains 50 mM Tris buffer (pH 7.4), 8.3 mM Mg^2+, in the presence of inhibitor or test compound, and containing PDE4B2 enzyme (sufficient to ensure that 10-20% of the cAMP is converted, under the said experimental conditions). […] After a pre-incubation of 5 minutes at 37° C., the reaction is started by adding the substrate (cAMP; 0.5 μM cAMP, including about 50,000 cpm of [^3H]-cAMP) and the assays are incubated for a further 10 minutes; after that, they are stopped by adding SPA beads containing 18 mM ZnSO4 (50 μl). After the beads have been sedimented (>30 minutes), the microtitre plates are analyzed in a Microplate luminescence detection device (TopCount* NXT; PerkinElmer Life Sciences). Where, the signal in the absence of enzyme is defined as the background. 100% activity was defined as the signal detected in the presence of enzyme and DMSO with the background subtracted. The corresponding IC50 values of the compounds for the inhibition of PDE4B2 activity are determined from the concentration-effect curves by means of non-linear regression fit of the standard 4-parameter/multiple binding sites equation from a eight- to ten-point titration. (Catherine B. et al. Anal. Biochem., 1999, 275(2), pp. 148-155, David M. E. Biochem. Pharmacol., 1999, 57, pp. 965-973)

Chain of human PDE4B enzyme (PDE4B2) (Q07343 1-564 isoform Q07343-2): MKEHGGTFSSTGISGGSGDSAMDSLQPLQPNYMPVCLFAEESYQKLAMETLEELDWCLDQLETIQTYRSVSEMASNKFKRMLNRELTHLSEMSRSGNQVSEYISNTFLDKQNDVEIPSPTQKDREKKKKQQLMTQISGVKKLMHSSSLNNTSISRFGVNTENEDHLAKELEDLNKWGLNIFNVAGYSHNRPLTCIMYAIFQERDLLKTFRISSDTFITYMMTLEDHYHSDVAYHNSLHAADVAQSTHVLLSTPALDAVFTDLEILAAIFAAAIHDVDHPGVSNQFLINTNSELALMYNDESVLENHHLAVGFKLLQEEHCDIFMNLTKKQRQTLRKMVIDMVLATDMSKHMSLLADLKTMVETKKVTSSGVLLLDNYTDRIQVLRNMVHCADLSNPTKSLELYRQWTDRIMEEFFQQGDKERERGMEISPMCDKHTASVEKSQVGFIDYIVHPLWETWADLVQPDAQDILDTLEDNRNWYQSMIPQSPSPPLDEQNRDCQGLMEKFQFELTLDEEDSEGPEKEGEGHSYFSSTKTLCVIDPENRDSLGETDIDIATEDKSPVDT

| inhibition at 0.1 µM [%] | Compound |
| --- | --- |
| 5.16 | COc1ccc(-c2nc(-c3ccc(C#N)cc3)cs2)c2c1oc1ccccc12 [Example 8, 4-(2-(4-Methoxydibenzo[b,d]furan-1-yl)-1,3-thiazol-4-yl)benzonitrile] |
| 8.92 | COc1ccc(-c2nc(CC(=O)Nc3c(Cl)cncc3Cl)cs2)c2c1oc1ccccc12 [Example 12, N-(3,5-Dichloropyridin-4-yl)-2-(2-(4-methoxydibenzo[b,d]furan-1-yl)-1,3-thiazol-4-yl)acetamide] |
| 17.6 | CCOC(=O)c1csc(-c2ccc(OC)c3oc4ccccc4c23)n1 [Example 15, Ethyl 2-(4-methoxydibenzo[b,d]furan-1-yl)-1,3-thiazole-4-carboxylate] |
| 36 | COc1ccc(-c2nc(C(=O)O)cs2)c2c1oc1ccccc12 [Example 16, 2-(4-Methoxydibenzo[b,d]furan-1-yl)-1,3-thiazole-4-carboxylic acid] |
| 2.42 | COc1ccc(-c2nc(C(=O)Nc3ccccc3)cs2)c2c1oc1ccccc12 [Example 17, 2-(4-Methoxydibenzo[b,d]furan-1-yl)-N-phenyl-1,3-thiazole-4-carboxamide] |
| 25.8 | COc1ccc(-c2nc(C(=O)N3CCN(c4ncccn4)CC3)cs2)c2c1oc1ccccc12 [Example 18, (2-(4-Methoxydibenzo[b,d]furan-1-yl)-1,3-thiazol-4-yl)(4-(pyrimidin-2-yl)piperazin-1-yl)methanone] |
| 21.9 | COc1ccc(-c2nc(C(=O)N3CCN(c4ccccn4)CC3)cs2)c2c1oc1ccccc12 [Example 19, (2-(4-Methoxydibenzo[b,d]furan-1-yl)-1,3-thiazol-4-yl)(4-(pyridin-2-yl)piperazin-1-yl)methanone] |
| 2.98 | COc1ccc(-c2nc(C(=O)Nc3ccc(Cl)cc3)cs2)c2c1oc1ccccc12 [Example 20, N-(4-Chlorophenyl)-2-(4-methoxydibenzo[b,d]furan-1-yl)-1,3-thiazole-4-carboxamide] |
| 9.1 | CCOC(=O)c1sc(-c2ccc(OC)c3oc4ccccc4c23)nc1C [Example 21, Ethyl 2-(4-methoxydibenzo[b,d]furan-1-yl)-4-methyl-1,3-thiazole-5-carboxylate] |
| 19.4 | COc1ccc(-c2csc(-c3ccc(OC)c4oc5ccccc5c34)n2)cc1 [Example 22, 2-(4-Methoxydibenzo[b,d]furan-1-yl)-4-(4-methoxyphenyl)-1,3-thiazole] |
| 16.8 | COc1ccc(-c2nc(C)c(C(=O)O)s2)c2c1oc1ccccc12 [Example 23, 2-(4-Methoxydibenzo[b,d]furan-1-yl)-4-methyl-1,3-thiazole-5-carboxylic acid] |
| 59.5 | CS(=O)(=O)Nc1ccc2oc3c(OC(F)F)ccc(-c4nc(C(=O)O)co4)c3c2c1 [Example 49, 2-(4-(Difluoromethoxy)-8-(methylsulfonamido)dibenzo[b,d]furan-1-yl)-1,3-oxazole-4-carboxylic acid] |
| 32.5 | CCNC(=O)c1nc(-c2ccc(OC)c3oc4ccccc4c23)oc1C [Example 57, N-Ethyl 2-(4-methoxydibenzo[b,d]furan-1-yl)-5-methyl-1,3-oxazole-4-carboxamide] |
| 64.1 | COc1ccc(-c2nc(C(N)=O)c(C)o2)c2c1oc1ccccc12 [Example 58, 2-(4-Methoxydibenzo[b,d]furan-1-yl)-5-methyl-1,3-oxazole-4-carboxamide] |
| 47.3 | COc1ccc(-c2nc(C(=O)NC3CCC(O)CC3)c(C)o2)c2c1oc1ccccc12 (centres unmarked) [Example 60, N-(4-Hydroxycyclohexyl)-2-(4-methoxydibenzo[b,d]furan-1-yl)-5-methyl-1,3-oxazole-4-Carboxamide] |
| 44.3 | COc1ccc(-c2nc(C(=O)NC(C)C)c(C)o2)c2c1oc1ccccc12 [Example 61, 2-(4-Methoxydibenzo[b,d]furan-1-yl)-5-methyl-N-(propan-2-yl)-1,3-oxazole-4-carboxamide] |
| 18.9 | COc1ccc(-c2nc(C(=O)N3CCN(c4ncc(C(=O)O)cn4)CC3)co2)c2c1oc1ccccc12 [Example 66, 2-(4-(2-(4-Methoxydibenzo[b,d]furan-1-yl)oxazole-4-carbonyl)piperazin-1-yl)pyrimidine-5-carboxylic acid] |
| 22.8 | COc1ccc(-c2nc(C(N)=O)co2)c2c1oc1ccccc12 [Example 67, 2-(4-Methoxydibenzo[b,d]furan-1-yl)-1,3-oxazole-4-carboxamide] |
| 33.3 | CNC(=O)c1coc(-c2ccc(OC)c3oc4ccccc4c23)n1 [Example 69, 2-(4-Methoxydibenzo[b,d]furan-1-yl)-N-methyl-1,3-oxazole-4-carboxamide] |
| 2.34 | COc1ccc(-c2nc(C(=O)NC3CC3)co2)c2c1oc1ccccc12 [Example 70, N-Cyclopropyl-2-(4-methoxydibenzo[b,d]furan-1-yl)-1,3-oxazole-4-carboxamide] |
| 20.3 | COc1ccc(-c2nc(C(=O)N3CCCC3)co2)c2c1oc1ccccc12 [Example 71, [2-(4-Methoxydibenzo[b,d]furan-1-yl)-1,3-oxazol-4-yl](pyrrolidin-1-yl)methanone] |
| 22.2 | COc1ccc(-c2nc3cc(C(=O)O)ccc3o2)c2c1oc1ccccc12 [Example 72, 2-(4-Methoxydibenzo[b,d]furan-1-yl)-1,3-benzo[d]oxazole-5-carboxylic acid] |
| 18.1 | COc1ccc(-c2nc3cc(C(N)=O)ccc3o2)c2c1oc1ccccc12 [Example 73, 2-(4-Methoxydibenzo[b,d]furan-1-yl)-1,3-benzo[d]oxazole-5-carboxamide] |
| 54.9 | COc1ccc(-c2nc3ccccc3o2)c2c1oc1ccccc12 [Example 74, 2-(4-Methoxydibenzo[b,d]furan-1-yl)-1,3-benzo[d]oxazole] |
| 37.2 | COc1ccc(-c2nc3ncccc3o2)c2c1oc1ccccc12 [Example 75, 2-(4-Methoxydibenzo[b,d]furan-1-yl)[1,3]oxazolo[4,5-b]pyridine] |
| 48.3 | COc1ccc(-c2nc3cc(C(=O)NC4CCCC4)ccc3o2)c2c1oc1ccccc12 [Example 76, N-Cyclopentyl-2-(4-methoxydibenzo[b,d]furan-1-yl)-1,3-benzo[d]oxazole-5-carboxamide] |
| 55.3 | COc1ccc(-c2nc3cc(C(=O)NC4CCC(O)CC4)ccc3o2)c2c1oc1ccccc12 (centres unmarked) [Example 77, N-(4-Hydroxycyclohexyl)-2-(4-methoxydibenzo[b,d]furan-1-yl)-1,3-benzo[d]oxazole-5-carboxamide] |

system: TNF-α; test: In vitro measurement of TNF-α production in LPS-stimulated human PBMC (ELISA); type: cell-based; settings: 100 nM compound, LPS 1 μg/mL, 18 h, NA: Not active
Method: Biological Activity In Vitro Measurement of Tumor Necrosis Factor Alpha (TNF-α):
This assay determines the effect of test compounds on the production of TNF-α in human Peripheral Blood Mononuclear Cells (PBMC). Compounds were tested for their ability to inhibit the activity of TNF α in human PBMC. PBMC were isolated from blood (of healthy volunteers) using BD Vacutainer CPT™ (Cell preparation tube, BD Bio Science) and suspended in RPMI (Rosewell park memorial institute) medium (Physiol. Res. 2003, 52, 593-598). The test compounds were pre-incubated with PBMC (0.5 million/incubation well) for 15 minutes at 37° C. and then stimulated with Lipopolysaccharide (Escherichia coli: B4; 1 μg/mL) for 18 h at 37° C. in 5% CO2. The levels of TNF-α in the cell culture medium were estimated using enzyme-linked immunosorbent assay performed in a 96 well format as per the procedure of the manufacturer (Cayman Chemical, Ann Arbor, USA).

| Compound | inhibition at 0.1 µM [%] |
| --- | --- |
| COc1ccc(-c2nc(-c3cccc(C(=O)O)n3)cs2)c2c1oc1ccccc12 [Example 2, 6-(2-(4-Methoxydibenzo[b,d]furan-1-yl)-1,3-thiazol-4-yl)picolinic acid] | 26.1 |
| COc1ccc(-c2nc(C(=O)NC3CCCC3)c(C)s2)c2c1oc1ccccc12 [Example 26, N-Cyclopentyl-2-(4-methoxydibenzo[b,d]furan-1-yl)-5-methyl-1,3-thiazole-4-carboxamide] | 21.9 |
| COc1ccc(-c2nc(C(=O)NC3CCC(O)CC3)c(C)s2)c2c1oc1ccccc12 (centres unmarked) [Example 27, N-(4-Hydroxycyclohexyl)-2-(4-methoxydibenzo[b,d]furan-1-yl)-5-methyl-1,3-thiazole-4-carboxamide] | 82.7 |
| COc1ccc(-c2nc(C(=O)Nc3c(Cl)cncc3Cl)c(C)s2)c2c1oc1ccccc12 [Example 28, N-(3,5-Dichloropyridin-4-yl)-2-(4-methoxydibenzo[b,d]furan-1-yl)-5-methyl-1,3-thiazole-4-carboxamide] | 0.88 |
| CCNC(=O)c1nc(-c2ccc(OC)c3oc4ccccc4c23)sc1C [Example 29, N-Ethyl-2-(4-methoxydibenzo[b,d]furan-1-yl]-5-methyl-1,3-thiazole-4-carboxamide] | 18.4 |
